Assay results as given in PubChem BioAssay (NCI).
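All cell lines were grown in 96-well plates and treated with compound for 48 hours. At the TGI there is no net growth.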

Tests used:
Test in all cases: DTP human tumour cell line panel, 48 h
DU-145 prostate = tested on: DU-145 prostate
EKVX NSCLC = tested on: EKVX NSCLC
HCC-2998 colon = tested on: HCC-2998 colon
HOP-62 NSCLC = tested on: HOP-62 NSCLC
IGROV1 ovarian = tested on: IGROV1 ovarian
K-562 leukemia = tested on: K-562 leukemia
MDA-MB-435 = tested on: MDA-MB-435
OVCAR-4 ovarian = tested on: OVCAR-4 ovarian
RPMI-8226 leukemia = tested on: RPMI-8226 leukemia
RXF 393 renal = tested on: RXF 393 renal
SF-295 CNS = tested on: SF-295 CNS
TK-10 renal = tested on: TK-10 renal
UACC-257 melanoma = tested on: UACC-257 melanoma
UO-31 renal = tested on: UO-31 renal
SNB-75 CNS = tested on: SNB-75 CNS

Measured: TGI

CCN(CC)CCNc1ccc2nnn3c4ccc(OC(C)=O)cc4c(=O)c1c23
8.73 µM: OVCAR-4 ovarian
15.1 µM: DU-145 prostate
6.38 µM: IGROV1 ovarian
19.3 µM: EKVX NSCLC | SF-295 CNS
> 19.8 µM: K-562 leukemia
16.7 µM: TK-10 renal
12.5 µM: HOP-62 NSCLC
17.4 µM: HCC-2998 colon
6.19 µM: RXF 393 renal
24.9 µM: UACC-257 melanoma
5.56 µM: RPMI-8226 leukemia
12.3 µM: UO-31 renal
18 µM: MDA-MB-435

CNc1nc(=O)c(C#N)c(-c2ccc(C)cc2)s1
not listed: HOP-62 NSCLC | RPMI-8226 leukemia
> 100 µM: all other assays above

COc1ccc(C2c3c(-c4ccccc4)nn(-c4ccccc4)c3Oc3ncn(N)c(=N)c32)cc1OC (stereo not drawn)
4.53 µM: RXF 393 renal
> 100 µM: K-562 leukemia
4.34 µM: SF-295 CNS
3.84 µM: UO-31 renal
3.92 µM: SNB-75 CNS
7.33 µM: OVCAR-4 ovarian
> 25.1 µM: RPMI-8226 leukemia
3.2 µM: IGROV1 ovarian
3.82 µM: UACC-257 melanoma
8.78 µM: DU-145 prostate
4.2 µM: MDA-MB-435
2.76 µM: HCC-2998 colon
4.13 µM: EKVX NSCLC
4.24 µM: TK-10 renal

COc1ccc(CCNC(=S)/N=C\C2=C(O)c3ccccc3C2=O)cc1OC
not listed: TK-10 renal
> 100 µM: all other assays above

CC(C)(CO)NC(=O)c1cccc(C(=O)NC(C)(C)CO)c1Br
not listed: SF-295 CNS
> 100 µM: all other assays above

O=C(O)C1(CC(CCCN2CCCCC2)c2ccccc2)CCCC1 (stereo not drawn)
not listed: UACC-257 melanoma
> 100 µM: all other assays above

O=C(O)c1ccc(/C=N\N(CCO)C2=NCCN2)cc1
not listed: UACC-257 melanoma
> 100 µM: all other assays above

CN1CCN(c2ccc3nc(-c4ccc5nc(-c6ccc(N(C)CCCl)cc6)[nH]c5c4)[nH]c3c2)CC1
1.88 µM: HCC-2998 colon
16.5 µM: RPMI-8226 leukemia
0.281 µM: MDA-MB-435
0.391 µM: IGROV1 ovarian
3.34 µM: UACC-257 melanoma
1.04 µM: OVCAR-4 ovarian
0.501 µM: RXF 393 renal
0.645 µM: HOP-62 NSCLC
11.4 µM: DU-145 prostate
1.16 µM: K-562 leukemia
0.897 µM: SNB-75 CNS
33.8 µM: UO-31 renal
11.2 µM: SF-295 CNS
9.77 µM: TK-10 renal

CC(=N\N=C\c1ccccn1)/C(C)=N/N=C/c1ccccn1
not listed: K-562 leukemia
> 100 µM: all other assays above

CCOC(=O)c1[nH]n(-c2ccccc2)c(=O)c1C=NC(=S)C(N)=S
42.2 µM: UO-31 renal
91.4 µM: SNB-75 CNS
97.7 µM: EKVX NSCLC
65.1 µM: RXF 393 renal
not listed: RPMI-8226 leukemia
> 100 µM: all other assays above

COc1ccc(-c2cc(-c3ccc(Nc4ccnc5cc(C(F)(F)F)ccc45)cc3)[nH]c(=O)c2C#N)cc1
> 68.2 µM: TK-10 renal
> 41.1 µM: HOP-62 NSCLC
> 53.5 µM: RXF 393 renal
62.2 µM: SNB-75 CNS
> 57.6 µM: SF-295 CNS
not listed: UO-31 renal
> 100 µM: all other assays above

CC(Nc1cc(=O)n(C)c(=O)[nH]1)c1ccccc1 (stereo not drawn)
not listed: RPMI-8226 leukemia
> 100 µM: all other assays above

COC(=O)C(Cc1ccccc1)NC(=O)C(CCCN=C(N)N)NC(=O)OCc1ccccc1 (stereo not drawn)
not listed: UACC-257 melanoma
> 100 µM: all other assays above

CC(=O)C1C(=O)C(=O)N(c2ccc([N+](=O)[O-])cc2Cl)C1=O (stereo not drawn)
not listed: K-562 leukemia | RPMI-8226 leukemia
> 100 µM: all other assays above

O=C(OCc1c(-c2ccccc2)nn(-c2ccccc2)c1COC(=O)Oc1ccccc1)Oc1ccccc1
not listed: UO-31 renal
> 100 µM: all other assays above
